Results taken from PubChem BioAssay AID1963959 (Molecular Pharmacology Branch, DTP, NCI, 2024).

Tested on: T-47D spheroids with HUVEC/MSC, viability
Test: Anticancer human tumor T-47D cell line growth inhibition [PI3K];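 further: spheroids exposed to agents for seven days before reading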;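 on viability, T/C: percent of DMSO vehicle control luminescence so 100% = untreated growth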
Settings: for IC50: curve of first compound; for viability, T/C: stronger effect = lower value; active means viability on the fitted dose curve at most 10% of control; inactive means the rest
Outline: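 Viability of mixed-cell spheroids was determined after exposure to pairwise combinations, one partner being inavolisib, alpelisib, duvelisib or copanlisib. Highest tested concentration matched clinical Cmax where known and 10 microM where not, descending in half-log steps.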

[1] = second compound 0.0316 µM, first compound 0.000316 µM
[2] = second compound 0.0316 µM, first compound 0.001 µM
[3] = second compound 0.0316 µM, first compound 0.00316 µM
[4] = second compound 0.0316 µM, first compound 0.01 µM
[5] = second compound 0.0316 µM, first compound 0.0316 µM
[6] = second compound 0.0316 µM, first compound 0.1 µM
[7] = second compound 0.1 µM, first compound 0.000316 µM
[8] = second compound 0.1 µM, first compound 0.001 µM
[9] = second compound 0.1 µM, first compound 0.00316 µM
[10] = second compound 0.1 µM, first compound 0.01 µM
[11] = second compound 0.1 µM, first compound 0.0316 µM
[12] = second compound 0.1 µM, first compound 0.1 µM
[13] = second compound 0.316 µM, first compound 0.000316 µM
[14] = second compound 0.316 µM, first compound 0.001 µM
[15] = second compound 0.316 µM, first compound 0.00316 µM
[16] = second compound 0.316 µM, first compound 0.01 µM
[17] = second compound 0.316 µM, first compound 0.0316 µM
[18] = second compound 0.316 µM, first compound 0.1 µM
[19] = second compound 1 µM, first compound 0.000316 µM
[20] = second compound 1 µM, first compound 0.001 µM
[21] = second compound 1 µM, first compound 0.00316 µM
[22] = second compound 1 µM, first compound 0.01 µM
[23] = second compound 1 µM, first compound 0.0316 µM
[24] = second compound 1 µM, first compound 0.1 µM

CC(C)n1nc(-c2ccc3oc(N)nc3c2)c2c(N)ncnc21 + COc1c(OCCCN2CCOCC2)ccc2c3n(c(=NC(=O)c4cnc(N)nc4)nc12)CCN3
56.6 nM: IC50 (second compound 0.00316 µM)
inactive: viability, T/C (second compound 0.00316 µM, first compound 0.000316 µM) 103% | viability, T/C (second compound 0.00316 µM, first compound 0.001 µM) 82.3% | viability, T/C (second compound 0.00316 µM, first compound 0.00316 µM) 106% | viability, T/C (second compound 0.00316 µM, first compound 0.01 µM) 92.5% | viability, T/C (second compound 0.00316 µM, first compound 0.0316 µM) 77.6% | viability, T/C (second compound 0.00316 µM, first compound 0.1 µM) 23.1% | viability, T/C (second compound 0.01 µM, first compound 0.000316 µM) 103% | viability, T/C (second compound 0.01 µM, first compound 0.001 µM) 78.2% | viability, T/C (second compound 0.01 µM, first compound 0.00316 µM) 98.5% | viability, T/C (second compound 0.01 µM, first compound 0.01 µM) 78.3% | viability, T/C (second compound 0.01 µM, first compound 0.0316 µM) 57.7% | viability, T/C (second compound 0.01 µM, first compound 0.1 µM) 16.7% | viability, T/C [1] 80.9% | viability, T/C [2] 58% | viability, T/C [3] 52.1% | viability, T/C [4] 39.9% | viability, T/C [5] 29.8% | viability, T/C [6] 7.95% | viability, T/C [7] 46% | viability, T/C [8] 36.5% | viability, T/C [9] 31.2% | viability, T/C [10] 23.6% | viability, T/C [11] 15.8% | viability, T/C [13] 14.4% | viability, T/C [14] 17.3% | viability, T/C [15] 12.6%
39.1 nM: IC50 (second compound 0.01 µM)
< 0.316 nM: IC50 (second compound 0.1 µM) | IC50 (second compound 0.316 µM) | IC50 (second compound 1 µM)
active: viability, T/C [12] 2.05% | viability, T/C [16] 12.3% | viability, T/C [17] 6.24% | viability, T/C [18] 0.85% | viability, T/C [19] 5.77% | viability, T/C [20] 4.9% | viability, T/C [21] 6.77% | viability, T/C [22] 5.07% | viability, T/C [23] 3.21% | viability, T/C [24] 1.6%
3.78 nM: IC50 (second compound 0.0316 µM)

Cn1ncnc1[C@H]1c2n[nH]c(=O)c3cc(F)cc(c23)N[C@@H]1c1ccc(F)cc1 + CC(Nc1ncnc2nc[nH]c12)c1cc2cccc(Cl)c2c(=O)n1-c1ccccc1
inactive: viability, T/C [1] 86.8% | viability, T/C [2] 92.8% | viability, T/C [3] 79.7% | viability, T/C [4] 94.8% | viability, T/C [5] 99.6% | viability, T/C [6] 80.8% | viability, T/C [7] 110% | viability, T/C [8] 82.2% | viability, T/C [9] 99.3% | viability, T/C [10] 91.5% | viability, T/C [11] 89.5% | viability, T/C [12] 93.3% | viability, T/C [13] 98.1% | viability, T/C [14] 82.9% | viability, T/C [15] 90.6% | viability, T/C [16] 100% | viability, T/C [17] 85.6% | viability, T/C [18] 92.1% | viability, T/C [19] 98.3% | viability, T/C [20] 89.6% | viability, T/C [21] 102% | viability, T/C [22] 74.5% | viability, T/C [23] 86.5% | viability, T/C [24] 92.6% | viability, T/C (second compound 3.16 µM, first compound 0.000316 µM) 86.3% | viability, T/C (second compound 3.16 µM, first compound 0.001 µM) 90.2% | viability, T/C (second compound 3.16 µM, first compound 0.00316 µM) 88.6% | viability, T/C (second compound 3.16 µM, first compound 0.01 µM) 83.2% | viability, T/C (second compound 3.16 µM, first compound 0.0316 µM) 103% | viability, T/C (second compound 3.16 µM, first compound 0.1 µM) 96.3% | viability, T/C (second compound 10 µM, first compound 0.000316 µM) 80.7% | viability, T/C (second compound 10 µM, first compound 0.001 µM) 81.7% | viability, T/C (second compound 10 µM, first compound 0.00316 µM) 83.4% | viability, T/C (second compound 10 µM, first compound 0.01 µM) 92.3% | viability, T/C (second compound 10 µM, first compound 0.0316 µM) 102% | viability, T/C (second compound 10 µM, first compound 0.1 µM) 83.7%
> 100 nM: IC50 (second compound 0.0316 µM) | IC50 (second compound 0.1 µM) | IC50 (second compound 0.316 µM) | IC50 (second compound 1 µM) | IC50 (second compound 3.16 µM) | IC50 (second compound 10 µM)
